In US10077289B2, “Cyclosporins modified on the MeBmt sidechain by heterocyclic rings” (priority 2015, dated 2018):
In brackets after ≈: the same amount, converted by molar mass. Where two headings read alike, the source gives them in different places.

Key:
[1] = target: Human recombinant cyclophilin A (Cyp A) (Homo sapiens (Human), UniProt P62937); assay: Protease-free PPIase assay
Method: Protease-Free PPIase Assay
The protease-free PPIase assay measures the rate of cis to trans conversion of a peptide substrate catalyzed by the enzyme cyclophilin A. Addition of a cyclophilin A inhibitor (e.g., a test compound) slows the catalyzed rate and a Ki value is obtained.
35 mM HEPES pH 7.8, filtered through a 0.2 μm filter. 50 μM DTT was added prior to use each day and then the buffer was stored on ice.
Human recombinant cyclophilin A (Cyp A) (Sigma C3805) enzyme was diluted to 1 μM with enzyme dilution buffer (20 mM HEPES pH 7.8, 40% glycerol, 50 μM DTT and 1 μM BSA) and stored at −20° C.
Succinimide-Ala-Ala-Pro-Phe-p-nitroanilide (SUC-AAPF-pNA) (from Bachem AG, L-1400), 20 mg/ml prepared in 0.5 M LiCl in trifluoroethanol.
The temperature is monitored by the use of a temperature probe. To prevent UV degradation of test compounds, the light below 290 nm was blocked using a glass slide in the light path. 1.5 ml of the assay buffer was put into a 3 ml quartz cuvette and cooled to 10.0±0.1° C. while stirring (vigorous but not so fast as to produce cavitation). The inhibitor was diluted in 100% DMSO, and then added to the assay to a maximum final concentration of 0.5% DMSO in the assay. A blank spectrum was obtained, then 3 μL of enzyme was added (2 nM final concentration) and then 3 μL substrate (60 μM final concentration) added. The absorbance was measured at 330 nm for 300 s or 500 s for blank runs (NOTE: the substrate must be added in one quick injection and the measurements started immediately to minimize mixing errors).
A first order rate equation was fitted to the absorbance data, for each concentration of inhibitor, to obtain the rate constant (the first 10 to 15 seconds were excluded as mixing causes errors in this portion of curve). The catalytic rate was calculated from the enzymatic rate constant minus the background rate constant. An exponential curve was generated using the catalytic rate constants versus the inhibitor concentration to obtain the Ki value for the inhibitor. The Ki value is indicative of the binding affinity between the test compound and cyclophilin A.

[2] = target: calcineurin/cyclophilin A (Homo sapiens (Human), UniProt P62937+P63098+Q08209); assay: Calcineurin Phosphatase (CaN) Assay (+CypA); format: biochemical; settings: in the presence of Cyp A, 1:1 complex with inhibitor; read-out: Calcineurin Phosphatase (CaN) Assay (+CypA) IC50
Source text: Calcineurin Phosphatase (CaN) Assay
The calcineurin phosphatase assay is a means for estimating the immunosuppressive potential of a test compound. Calcineurin is a serine-threonine protein phosphatase that on activation dephosphorylates members of the nuclear factor of activated T cells (NFAT), which are important in T lymphocyte activation.
To investigate the immunosuppressive potential of exemplary compounds of Formula I, which are cyclosporin analogs, their ability to inhibit calcineurin activity was measured in the presence and absence of Cyp A.
The CaN assay kit used is based on a colorimetric assay for measuring calcineurin phosphatase activity, and it is commercially available (Enzo Life Sciences and Calbiochem). Calmodulin is also required for calcineurin activity and RII phosphopeptide is used as an efficient peptide substrate for calcineurin. […] The detection of free phosphate released is based on the classic Malachite green assay.
Enzo Life Sciences CaN Assay Kit: BML-AK804
Malachite Green: BIOMOL Green™ reagent
Calmodulin (Human, recombinant): was thawed on ice, diluted 1:50 with 2× assay buffer, and then stored on ice.
Calcineurin: was thawed quickly, stored on ice immediately, diluted 1:12.5 with 1× assay buffer, and then stored on ice.
R-II Substrate: 915 μL ultrapure water (UPW) was added to the 1.5 mg vial substrate to give a final concentration of 0.75 mM.
Inhibitors: 2.5 mM inhibitor in 100% DMSO.
Cyp A: recombinant human CypA (Sigma C3805), 1 mg/ml; Recombinant 6-His tagged CypA prepared by the University of Edinburgh was also used.
Inhibitor dilutions: inhibitor compounds were diluted in UPW in polypropylene low-binding 96 well plates at 5× the final assay concentration.
Assay Setup: using the half area 96 well plates supplied with the kit, 10 μl UPW was added to duplicate wells to provide the non-inhibited control. 10 μl of the inhibitor or the inhibitor/Cyp A complex was added to the appropriate sample wells. 25 μl of the 2× assay buffer with CaM was added to all wells, then 5 μl of CaN was added to all wells (40 U per well final concentration) except duplicate ‘no calcineurin blank’ wells to which 5 μL 1× assay buffer was added. The assay plate was placed in an oven at 30° C. for 15 minutes to equilibrate to the reaction temperature. The reaction was started by the addition of 10 μl RII-peptide (0.15 mM final concentration). The reaction was allowed to proceed at 30° C. for a time period in which the reaction is linear for about 60 minutes. The reaction was then terminated by adding 100 μl of the Malachite Green reagent. The color was allowed to develop for 15-30 minutes at room temperature before the absorbance at 620 nm was measured using a plate reader (Molecular Devices—SpectraMax M5). The data were analyzed by subtracting ‘no Calcineurin blank’ from all the absorbance readings and plotting the background corrected absorbances against Log10 inhibitor concentration. A sigmoidal-dose response curve was fitted to the data using GraphPad Prism Software.
It exerts its immunosuppressive activity by binding to cyclophilin A to form a complex, which then binds to calcineurin and thereby inhibits calcineurin activity.

[3] = Water Solubility Assay (measured in pH 7.8 buffer); format: physicochemical; settings: 25 °C, pH 7.8, aqueous buffer, kinetic from dmso stock
Method: Water Solubility Assay (Measured in pH 7.8 Buffer)
The aqueous solubility of a compound of Formula I in buffer (pH 7.8) was measured by recording the onset of precipitation of the compound as a function of increasing concentration. The onset of precipitation, if it occurred, was detected by an increase in absorbance at 650 nm.
Assay Buffer: 35 mM HEPES pH 7.8
Stock solutions of Control and Test Compounds: 10 mM in 100% DMSO.
10 mM stock solutions of control and test compounds were prepared in 100% DMSO.
Assay buffer (247.5 μl) was placed into flat bottomed transparent 96-well plate. For blank samples DMSO (2.5 μl) was added. For test and control samples 2.5 μl of the appropriate DMSO dilution stocks were added to the appropriate well. All test and control compounds were performed in triplicate.
The plates were sealed with adhesive plate seal and shaken at 250 rpm at 25° C. for 18 h on a plate shaker. After incubation the plate seals were taken off and any bubbles observed in wells removed. The plates were read on a SpectraMaxM5 with a 5 s pre-shake at 650 nm. Data files were transferred to the appropriate worksheet and the solubility range of the compounds was calculated from the data. The values shown in the Tables indicate the concentration in μM (micromolar) at which the compound remains in solution.

SMILES: CC[C@H]1NC(=O)[C@@H]([C@H](O)[C@H](C)Cc2nccn2C)N(C)C(=O)[C@@H](C(C)C)N(C)C(=O)[C@@H](CC(C)C)N(C)C(=O)[C@@H](CC(C)C)N(C)C(=O)[C@H](C)NC(=O)[C@@H](C)NC(=O)[C@@H](CC(C)C)N(C)C(=O)[C@@H](C(C)C)NC(=O)[C@H](CC(C)C)N(C)C(=O)[C@@H](C)N(C)C1=O [Compound 1, [(2S,3R,4R)-3-Hydroxy-4-methyl-2-(methylamino)-5-(1-methyl-1H-imidazol-2-yl)-pentanoic acid]^1 [(R)-methyl-Sar]^3 cyclosporin A]
- Ki [1]: 15 nM
- IC50 [2]: 2700 nM
- solubility at 18 h [3]: 75 to 100 µM (≈ 94.3 to 126 µg/mL)

SMILES: CC[C@H]1NC(=O)[C@@H]([C@H](O)[C@H](C)CCCc2ncccn2)N(C)C(=O)[C@@H](C(C)C)N(C)C(=O)[C@@H](CC(C)C)N(C)C(=O)[C@@H](CC(C)C)N(C)C(=O)[C@H](C)NC(=O)[C@@H](C)NC(=O)[C@@H](CC(C)C)N(C)C(=O)[C@@H](C(C)C)NC(=O)[C@H](CC(C)C)N(C)C(=O)CN(C)C1=O [Compound 32, [(2S,3R,4R)-3-Hydroxy-4-methyl-2-(methylamino)-7-(pyrimidin-2-yl)-heptanoic acid]^1 cyclosporin A]
- Ki ([1]; read-out: Protease-free PPIase Assay Ki, human recombinant Cyp A, 10 °C): 8.3 nM
- IC50 [2]: 3450 nM
- solubility at 18 h [3]: 75 to 100 µM (≈ 95.2 to 127 µg/mL)

SMILES: CC[C@H]1NC(=O)[C@@H]([C@H](O)[C@H](C)CCCc2ccnn2C)N(C)C(=O)[C@@H](C(C)C)N(C)C(=O)[C@@H](CC(C)C)N(C)C(=O)[C@@H](CC(C)C)N(C)C(=O)[C@H](C)NC(=O)[C@@H](C)NC(=O)[C@@H](CC(C)C)N(C)C(=O)[C@@H](C(C)C)NC(=O)[C@H](CC(C)C)N(C)C(=O)[C@@H](C)N(C)C1=O [Compound 23, [(2S,3R,4R)-3-Hydroxy-4-methyl-2-(methylamino)-7-(2-methylpyrazol-3-yl)-heptanoic acid]^1 [(R)-methyl-Sar]^3 cyclosporin A]
- Ki [1]: 2.1 nM
- IC50 [2]: 3340 nM
- solubility at 18 h [3]: > 100 µM

SMILES: CC[C@H]1NC(=O)[C@@H]([C@H](O)[C@H](C)CCOCc2ccncc2)N(C)C(=O)[C@@H](C(C)C)N(C)C(=O)[C@@H](CC(C)C)N(C)C(=O)[C@@H](CC(C)C)N(C)C(=O)[C@H](C)NC(=O)[C@@H](C)NC(=O)[C@@H](CC(C)C)N(C)C(=O)[C@@H](C(C)C)NC(=O)[C@H](CC(C)C)N(C)C(=O)[C@@H](C)N(C)C1=O [Compound 37, [(2S,3R,4R)-3-Hydroxy-4-methyl-2-(methylamino)-6-(pyridin-4-ylmethoxy)-hexanoic acid]^1 cyclosporin A]
- Ki [1]: 5.6 nM
- IC50 [2]: 5640 nM
- solubility at 18 h [3]: > 100 µM

SMILES: CC[C@H]1NC(=O)[C@@H]([C@H](O)[C@H](C)CCCc2ccccn2)N(C)C(=O)[C@@H](C(C)C)N(C)C(=O)[C@@H](CC(C)C)N(C)C(=O)[C@@H](CC(C)C)N(C)C(=O)[C@H](C)NC(=O)[C@@H](C)NC(=O)[C@@H](CC(C)C)N(C)C(=O)[C@@H](C(C)C)NC(=O)[C@H](CC(C)C)N(C)C(=O)[C@@H](C)N(C)C1=O [Compound 12, [(2S,3R,4R)-3-Hydroxy-4-methyl-2-(methylamino)-7-(pyridin-2-yl)-heptanoic acid]^1 [(R)-methyl-Sar]^3 cyclosporin A]
- Ki [1]: 3.8 nM
- IC50 [2]: 1400 nM
- solubility at 18 h [3]: 50 to 75 µM (≈ 64.1 to 96.1 µg/mL)

SMILES: CC[C@H]1NC(=O)[C@@H]([C@H](O)[C@H](C)CCCc2nccn2C)N(C)C(=O)[C@@H](C(C)C)N(C)C(=O)[C@@H](CC(C)C)N(C)C(=O)[C@@H](CC(C)C)N(C)C(=O)[C@H](C)NC(=O)[C@@H](C)NC(=O)[C@@H](CC(C)C)N(C)C(=O)[C@@H](C(C)C)NC(=O)[C@H](CC(C)C)N(C)C(=O)[C@@H](C)N(C)C1=O [Compound 26, [(2S,3R,4R)-3-Hydroxy-7-(1-methyl-1H-imidazol-2-yl)-4-methyl-2-(methylamino)heptanoic acid]^1 [(R)-methyl-Sar]^3 cyclosporin A]
- Ki [1]: 12.2 nM
- IC50 [2]: > 10000 nM
- solubility at 18 h [3]: > 100 µM
